Here are results for 23 compounds from publication PMC7997635 (Journal of medicinal chemistry, 2021).

Data set [1] has as its system conversion of hematin (Fe(III)PPIX) to β-hematin. The class given is biochemical. Particulars: pH 4.8 acetate, NP-40, 37 °C, 5 h; for IC50: read-out: IC50 for inhibition of βH formation.
In another data set the test system is P. falciparum NF54-luc. Nature of the data set: Bioluminescence relative rate of kill. The class given is cell-based, Plasmodium falciparum. Particulars: 6 h exposure, 30× to […] EC50, compared with benchmarks.
Data set [2] is described as follows: Solubility in NP-40/DMSO buffer of the heme biomineralization assay. The data set is classed as physicochemical.
Data set [3] has as its system P. falciparum. The conditions noted are these: previously characterized with the standard PRR assay ref 34; cited from earlier work.
The next data set concerns PfNF54 parasites. Nature of the data set: Parasite survival concentration response. The data set is classed as cell-based. The conditions noted are these: Plasmodium falciparum, read-out: EC50 (survival), parasite survival.
For data set [4], the system named is Hz formation in NF54 parasites. Nature of the data set: Cellular heme fractionation assay. The class given is cell-based. The conditions noted are these: Plasmodium falciparum, NF54, 32 h, read-out: EC50 (heme), drug concentration giving 50% response of 'free' heme Fe.
The test system of data set [5] is P. falciparum 3D7. Nature of the data set: SYBR Green parasite growth inhibition assay, 72 h. The class given is cell-based. The conditions noted are these: Plasmodium falciparum, 3D7, 72 h, read-out: P. falciparum EC50 Pf3D7, 72 h SYBR Green assay, ABS parasites; mean ± std dev (n) or individual replicates.
Data set [6] in a line: Kinetic solubility in pH 2.0 and pH 6.5 buffers. The class given is physicochemical.
For a further data set, the system named is HepG2. Nature of the data set: HepG2tox assay run with the liver stage assay. The data set is classed as cell-based, human. The conditions noted are these: read-out: HepG2 CC50 (life cycle profiling); two independent replicates.
A short description of data set [7]: HepG2tox assay run with the liver stage assay. The data set is classed as cell-based, human. The conditions noted are these: human, HepG2 cells, HepG2 CC50 (life cycle profiling), two independent replicates.
In data set [8] the test system is P. berghei liver stage (Pb-Luc sporozoites in HepG2-A16-CD81EGFP cells). Nature of the data set: P. berghei liver stage assay. The class given is cell-based, Plasmodium berghei. Particulars: for EC50: read-out: Pb liver stage EC50, two independent replicates.
Data set [9] deals with P. falciparum. Kind of data set: PRR drug washout kill rate assay. The data set is classed as cell-based, Plasmodium falciparum. The conditions noted are these: 10× EC50, 24 or 48 h.
In data set [10] the test system is P. falciparum 3D7. Kind of data set: Two-color flow cytometry kill rate assay. The data set is classed as cell-based, Plasmodium falciparum. The conditions noted are these: 10× EC50, 24 or 48 h.
Data set [11] in a line: HepG2 in vitro cytotoxicity. Particulars: human, HepG2 cells. The data set is classed as cell-based.
The next data set has as its system P. falciparum Dd2. Kind of data set: SYBR Green parasite growth inhibition assay, 72 h. The data set is classed as cell-based, Plasmodium falciparum.
For another data set, the system named is male stage V gametocytes. Nature of the data set: Dual gamete formation assay. The class given is cell-based. Particulars: Plasmodium falciparum, read-out: DGFA male gametocytes inhibition.
Data set [12] relates to P. falciparum 3D7. Nature of the data set: 48 h 3H-hypoxanthine incorporation assay. Particulars: Plasmodium falciparum, 3D7, 48 h, read-out: EC50, 48 h hypoxanthine assay. The data set is classed as cell-based.
Setting [13] is: phosphate buffered saline pH 6.5, pH 6.5.

In brackets after ≈: the same amount, converted by molar mass.

By solubility is commonly meant the concentration that dissolves in the medium under given conditions. Usually IC50 stands for the concentration that inhibits the measured activity by half. One may read the kinetic solubility as the concentration staying in solution when a stock, usually in DMSO, is diluted into the medium. As usually defined, the CC50 is the concentration giving 50% cytotoxicity. One may read the inhibition as the change of the read-out against control, counted positive when it falls.

In the case of `COc1ccc(Br)cc1CN(C)C(c1ccccc1)c1nnnn1-c1ccccc1C` (racemic) [Compound 3, N-(5-bromo-2-methoxybenzyl)-N-methyl-1-phenyl-1-(1-(o-tolyl)-1H-tetrazol-5-yl)methenamine], the “inhibition of βH formation (in words)” value in data set [1] was “nearly inactive”. Moreover, the “rate of kill profile in BRRoK assay” value in the data set on P. falciparum NF54-luc was “fast kill mechanism”. This compound returned a solubility in data set [2] not below 2000 µM.
`O[C@@H](c1cc(C(F)(F)F)nc2c(C(F)(F)F)cccc12)[C@H]1CCCCN1` (racemic) [MFQ, mefloquine, reference compound]: the half-inhibitory concentration (IC50) in [1] was not above 100 µM.
As to `C[C@@H]1CC[C@H]2[C@@H](C)C(=O)O[C@@H]3O[C@@]4(C)CC[C@@H]1[C@]32OO4` [ART, artemisinin], in the data set with P. falciparum [3], the “rate of kill class of benchmark compound” value is given as “fast-kill”.
Turning to `O=C1C(O)=C([C@H]2CC[C@H](c3ccc(Cl)cc3)CC2)C(=O)c2ccccc21` [ATQ, atovaquone], the “rate of kill class of benchmark compound” value in the data set with P. falciparum [3] is given as “slow-kill”.
Regarding `CCN(CC)CCCC(C)Nc1ccnc2cc(Cl)ccc12` (stereo not drawn) [CQ, chloroquine], the “rate of kill class of benchmark compound” value in the data set with P. falciparum [3] was “fast-kill”. Moreover, the EC50 with PfNF54 parasites was 0.015 µM; in data set [4] it was 0.058 µM.
In the case of `CCC(C(=O)Nc1cccc(Cl)c1)N1C(=O)C(C)N=C(c2ccccc2)c2ccccc21` (stereo not drawn) [Compound 1, N-(3-Chlorophenyl)-2-(3-methyl-2-oxo-5-phenyl-2,3-dihydro-1H-benzo[e][1,4]diazepin-1-yl)butanamide], the “rate of kill profile in BRRoK assay” value in the data set with P. falciparum NF54-luc is given as “slow kill kinetics”.
On the same count and under the same terms, the value for `CC(=O)c1ccc(NC(=O)c2ccc(NC(=O)C3COc4ccccc4O3)cc2)cc1` (stereo not drawn) [Compound 2, N-(4-((4-Acetylphenyl)carbamoyl)phenyl)-2,3-dihydrobenzo[b][1,4]dioxine-2-carboxamide] was “slow kill kinetics”.
Regarding `COc1ccc(C(F)(F)F)cc1CN(C)C(c1cccnc1)c1nnnn1-c1ccccc1C` (stereo not drawn) [Compound 6, N-(2-methoxy-5-(trifluoromethyl)benzyl)-N-methyl-1-(pyridin-3-yl)-1-(1-(o-tolyl)-1H-tetrazol-5-yl)methenamine], the EC50 in the data set with P. falciparum 3D7 [5] is approximately 1 µM.
Turning to `COc1ccc(C(F)(F)F)cc1CN(C1CC1)C(c1cccnc1)c1nnnn1-c1ccccc1C` (stereo not drawn) [Compound 7, N-(2-methoxy-5-(trifluoromethyl)benzyl)-N-(pyridin-3-yl(1-(o-tolyl)-1H-tetrazol-5-yl)methyl)cyclopropanamine], the kinetic solubility was in the range of 12.5 to 25 µg/mL (≈ 25.3 to 50.6 µM) in data set [6] (pH 2.0 buffer, pH 2) and 1.6 to 3.1 µg/mL (≈ 3.24 to 6.27 µM) in data set [6] (setting [13]).
As to `Cc1ccccc1-n1nnnc1C(c1cccnc1)N(Cc1cccc(C(F)(F)F)c1)C1CC1` (stereo not drawn) [Compound 9, N-(Pyridin-3-yl(1-(o-tolyl)-1H-tetrazol-5-yl)methyl)-N-(3-(trifluoromethyl)benzyl) cyclopropanamine], the kinetic solubility in [6] (pH 2.0 buffer, pH 2) was in the range of 12 to 23 µg/mL (≈ 25.8 to 49.5 µM); in [6] (setting [13]), 1.5 to 2.9 µg/mL (≈ 3.23 to 6.24 µM). Also, in data set [1], the “inhibition of βH formation (in words)” value is listed as “inhibited βH formation with the same potency as MFQ”. Also, the CC50 in the data set with HepG2 was more than 17 µM; in data set [7] it was 19 µM. Moreover, the EC50 in data set [8] is 12 µM. Moreover, the solubility in data set [2] is not below 2000 µM.
Regarding `Cc1ccccc1-n1nnnc1C(c1cncnc1)N(Cc1cccc(C(F)(F)F)c1)C1CC1` (stereo not drawn) [Compound 10, N-(Pyrimidin-5-yl(1-(o-tolyl)-1H-tetrazol-5-yl)methyl)-N-(3-(trifluoromethyl)benzyl)cyclopropanamine], in the data set with P. falciparum [9], the “kill kinetics in PRR washout assay” value is given as “kill kinetics similar to CQ, though slower than ART”. Further, the kinetic solubility fell in the range of 1.5 to 2.9 µg/mL (≈ 3.22 to 6.23 µM) in data set [6] (pH 2.0 buffer, pH 2) and 1.5 to 2.9 µg/mL (≈ 3.22 to 6.23 µM) in data set [6] (setting [13]). In data set [1], the “inhibition of βH formation (in words)” value is recorded as “weaker inhibition”. The EC50 turned out to be 0.32 µM with P. falciparum 3D7 [5] and 1.04 µM in data set [4]. For the same compound, the “kill kinetics in two-color FACS assay” value in the data set with P. falciparum 3D7 [10] is on record as “kill kinetics similar to CQ, though slower than ART”. The “rate of kill profile in BRRoK assay” value in the data set on P. falciparum NF54-luc is “fast kill kinetics”. This compound gave a half-maximal cytotoxic concentration (CC50) at 72 h in [11] of more than 30 µM. In data set [2], this compound yielded a solubility not below 2000 µM.
Turning to `CCCN(C(c1cncnc1)c1nnnn1-c1ccccc1C)C1(c2cccc(C(F)(F)F)c2)CC1` (stereo not drawn) [Compound 20, N-Propyl-N-(pyrimidin-5-yl(1-(o-tolyl)-1H-tetrazol-5-yl)methyl)-1-(3-(trifluoromethyl)phenyl)cyclopropan-1-amine], the selectivity ratio at 72 h in [11] lay in the range of 40 to 50.
Regarding `CCCN(C(c1cccnc1)c1nnnn1-c1ccccc1C)C1(c2cccc(C(F)(F)F)c2)CC1` (stereo not drawn) [Compound 21, N-Propyl-N-(pyridin-3-yl(1-(o-tolyl)-1H-tetrazol-5-yl)methyl)-1-(3-(trifluoromethyl)phenyl)cyclopropan-1-amine], the EC50 with P. falciparum 3D7 [5] was approximately 0.3 µM. In addition, the selectivity ratio at 72 h in data set [11] lay in the range of 40 to 50.
In data set [6] (setting [13]), `Cc1ccccc1N(C)C(=O)C(c1cccnc1)N(Cc1cccc(C(F)(F)F)c1)C1CC1` (stereo not drawn) [Compound 22, 2-(Cyclopropyl(3-(trifluoromethyl)benzyl)amino)-N-methyl-2-(pyridin-3-yl)-N-(o-tolyl)acetamide] registered a kinetic solubility of 6.3 to 12.5 µg/mL (≈ 13.9 to 27.6 µM).
`Cc1ccccc1N(C)C(=O)C(c1cncnc1)N(Cc1cccc(C(F)(F)F)c1)C1CC1` (stereo not drawn) [Compound 23, 2-(Cyclopropyl(3-(trifluoromethyl)benzyl)amino)-N-methyl-2-(pyrimidin-5-yl)-N-(o-tolyl)acetamide] registered a solubility (kinetic) in data set [6] (pH 2.0 buffer, pH 2) of 11 to 23 µg/mL (≈ 24.2 to 50.6 µM). For the same compound, the “rate of kill profile in BRRoK assay” value in the data set with P. falciparum NF54-luc is reported as “fast kill kinetics”.
Consider `Cc1ccccc1N(C)C(=O)C(c1cccnc1)N(Cc1cccc(OC(F)(F)F)c1)C1CC1` (stereo not drawn) [Compound 26, 2-(Cyclopropyl(3-(trifluoromethoxy)benzyl)amino)-N-methyl-2-(pyridin-3-yl)-N-(o-tolyl)acetamide], for which, in the data set on P. falciparum Dd2, the “Fold Diff in EC50, Dd2 relative to 3D7” value was 3–5 fold.
Same read-out and setting: as for `Cc1ccccc1N(C)C(=O)C(c1cncnc1)N(Cc1cccc(OC(F)(F)F)c1)C1CC1` (stereo not drawn) [Compound 27, 2-(Cyclopropyl(3-(trifluoromethoxy)benzyl)amino)-N-methyl-2-(pyrimidin-5-yl)-N-(o-tolyl)acetamide], the figure is 1.4 – 3.0 fold.
For `Cc1ccccc1N(C)C(=O)C(c1cccnc1)N(Cc1cc(C(F)(F)F)ccc1F)C1CC1` (stereo not drawn) [Compound 32, 2-(Cyclopropyl(2-fluoro-5-(trifluoromethyl)benzyl)amino)-N-methyl-2-(pyridin-3-yl)-N-(o-tolyl)acetamide], in data set [6] (setting [13]), the kinetic solubility lay within 1.5 to 2.9 µg/mL (≈ 3.18 to 6.15 µM). Also, half-maximal cytotoxicity in data set [7] (CC50) was put at 24 µM. The “Pb liver stage EC50 relative to P. falciparum blood stage EC50” value in data set [8] (fold higher) lay in the range of 20 to 30 fold. In addition, in [8], the EC50 turned out to be 16 µM. Moreover, the inhibition at 25 µM in the data set on male stage V gametocytes was approximately 60%.
As to `O=C(C(c1cccnc1)N(Cc1cccc(C(F)(F)F)c1)C1CC1)N1CCCCC1` (stereo not drawn) [Compound 34, 2-(Cyclopropyl(3-(trifluoromethyl)benzyl)amino)-1-(piperidin-1-yl)-2-(pyridin-3-yl)ethan-1-one], in data set [6] (setting [13]), the solubility (kinetic) lay within 25 to 50 µg/mL (≈ 59.9 to 120 µM).
`Cc1cc(Nc2ccc(S(F)(F)(F)(F)F)cc2)n2nc(C(C)(F)F)nc2n1` [DSM265]: the “rate of kill class of benchmark compound” value in the data set on P. falciparum [3] is on record as “slow-kill”.
Regarding `CCc1nc(N)nc(N)c1-c1ccc(Cl)cc1` [PYR, pyrimethamine], the EC50 with P. falciparum 3D7 [12] was 0.094 µM; in the data set with PfNF54 parasites, 0.033 µM; in data set [4], more than 0.1 µM.
Take `CCN(CC)Cc1cc(Nc2ccnc3cc(Cl)ccc23)ccc1O` [amodiaquine, reference compound]: in data set [1], the IC50 is not above 100 µM.
Turning to `COc1ccc2nc3cc(Cl)ccc3c(Nc3cc(CN4CCCC4)c(O)c(CN4CCCC4)c3)c2n1` [pyronaridine, reference compound], in data set [1], the half-inhibitory concentration (IC50) was not above 100 µM.
